Where two headings read alike, the source gives them in different places.
Tests used:
platelet = experiment: Anti-platelet aggregation effect in rabbits (ADP-induced); assay type: cell-based, rabbit; conditions: read-out: IC50 (concentration at which aggregation of control sample was 50% inhibited)
Protocol: Anti-platelet aggregation effect in rabbits
Blood was collected from the abdominal artery of Japanese white male rabbits (weight: 1.8 to 2.5 kg) into a syringe containing 1/10 volume 3.8% sodium citrate. The blood thus obtained was subjected to a centrifugation at 200×g for 7 minutes at room temperature to obtain platelet rich plasma (PRP). Furthermore, the residue was subjected to a centrifugation at 2000×g for 10 minutes to obtain platelet poor plasma (PPP). The measurement was effected by diluting PRP with PPP to 300,000/mm^3. PRP and PPP were placed in a cuvette, and the measurement range of transmittance was adjusted to 0% in the case of PRP and to 100% in the case of PPP. Thereafter, a test sample drug dissolved in 100% dimethylsulfoxide (DMSO) was added to PRP (the final concentration of DMSO: 0.25%). After incubation was effected at 37° C. at 900 rpm for 2 minutes, an aggregating agent was added to record an aggregation curve. The anti-platelet aggregation effect of the test sample drug was expressed by a concentration (IC50 : μM) at which the aggregation of control sample was 50% inhibited. The aggregating agent ADP was used at the minimum concentration (5 to 10 μM) which caused the maximum aggregation. The measurement of platelet aggregation was carried out by using NBS HEMA TRACER 601.

[1] = system: anaphylactic bronchoconstriction mediated by endogeneously liberated SRS-A; experiment: Effect on anaphylactic bronchoconstriction mediated by endogeneously liberated SRS-A in passively sensitized guinea-pig; assay type: in vivo; conditions: for inhibition in vivo at 30 mg/kg: Cavia porcellus, po, 2 h
Protocol: Effect on anaphylactic bronchoconstriction mediated by endogeneously liberated SRS-A in passively sensitized guinea-pig
Male guinea-pigs (350-450 g) were passively sensitized with intravenous (i.v.) injection of 0.125 ml rabbit anti-EA (egg albumin) serum (Capple Laboratories) 1 to 2 days preceding the experiment. Antigen-induced anaphylactic bronchoconstrictions mediated by endogeneously liberated SRS-A were measured by modified method of Konzett and Rossler (Arch. Exp. Path. Pharmak., 195, 71, 1940). Sensitized quinea-pigs were anaesthetized with intraperitoneal injection of urethane (1.5 g/kg). The right jugular vein was cannulated for the administration of the all agents and trachea was cannulated to record total pulmonary resistance. Guinea-pigs were artificially ventilated by a small animal respirator (Shinano, Model SN-480-7) set at a stroke volume of 4.5 ml and a rate of 50 breaths per min. The change in pulmonary resistance was measured with a pressure transducer (Nihon Kohden, Model TP-602T) connected to a T-tube on the tracheal cannula. The percentage of the maximum bronchoconstriction obtained by clamping off the trachea. Following surgical preparation, the animals were pretreated with indomethacin (2 mg/kg, 10 min), pyrilamine (2 mg/kg, 6 min) and propranolol (0.1 mg/kg, 5 min) prior to the EA challenge (0.2 mg/kg). All test compounds were administered orally 2 hours before the EA challenge. Inhibition (%) of broncho-constriction was determined as follows: Inhibition (%)=(1.0-% maximum bronchoconstriction in test/% maximum bronchoconstriction in control)×100. The maximum bronchoconstriction was 62±6% (Mean±S.E.M; n=6) and the number of test animals was 5-6.

histamine H1 receptor = target: T1, histamine H1 receptor (Bos taurus, UniProt P30546); experiment: Binding test employing 3H-pyrilamine (histamine H1 receptor-binding test); conditions: 0.5 h
T1 construct: suspension of bovine cerebellum; from tissue; host or cells: bovine cerebellum
Protocol: Tritiated pyrilamine was added to a suspension of bovine cerebellum and a 50 mM phosphate buffer solution (pH 7.5), and the mixture was left to stand still at 25° C. for 30 minutes. Then, the mixture was rapidly filtered under suction through a glass fiber filter paper, and the radio activities on the filter paper were measured.

guinea-pig trachea [2] = experiment: Bronchodilating effect in vitro, Method 1-1: relaxation of LTD4-contracted guinea-pig trachea strips; assay type: cell-based; conditions: Cavia porcellus, read-out: EC50 (concentration to achieve 50% relaxation relative to relaxation by 1 mM aminophylline)
Protocol: (§1) A test sample drug was dissolved in 100% dimethylsulfoxide (DMSO, Wako Junyaku) and diluted for use. Leukotriene D4 (LTD4, Ultrafine) and isoproterenol (Isoproterenol, Sigma) were diluted with distilled water. Indomethacin (Indo, Sigma) was dissolved in 100% ethanol (EtOH, Komune Kagaku). Aminophylline (AP, Sigma), histamine dihydrochloride (His, Wako Junyaku) was dissolved in distilled water. The final concentrations of DMSO and EtOH in a bath were made not higher than 0.25% v/v and not higher than 0.1% v/v, respectively. Method 1:1:
(§2) A guinea-pig of 300-450 g was exsanguinated, and the trachea was taken out. After removing fat and connective tissues, it was cut and divided into 2 to 3 spiral strips, each having a width of about 2 mm and containing 4 smooth muscle tissues. Each specimen thus prepared was suspended in an organ bath of 8 ml containing a modified Tyrode solution aerated with 95% O2 +5% CO2 at 37° C., and a load of 1 g was applied thereto. The relaxation of the muscle was recorded by a pen recorder (Yokogawa Hokushin Electric, type 3066) by means of an isotonic transducer (Nihon Kohden, TD-112S).
The composition of the modified Tyrode solution was as follows (mM):
The specimen was allowed to stand for 50-60 minutes, and was contracted with histamine dihydrochloride (100 μM). After the reaction became constant, it was washed and allowed to stand for 20-30 minutes. Indomethacin (5 μM) was added thereto, and after incubation for 30 minutes, the specimen was contracted by adding LTD4 (30 nM). After the reaction-became stable, a test sample drug was accumulatively administered. Finally, AP (1 mM) was added to achieve the maximum relaxation reaction. The result was expressed by relaxation percent relative to the relaxation by AP which was rated 100%, and a concentration to achieve 50% relaxation (EC50, μM) was measured. As a control drug, AP was used.

guinea-pig trachea [3] = experiment: Bronchodilating effect in vitro, Method 1-2: relaxation of guinea-pig trachea strips (no LTD4 contraction); assay type: cell-based; conditions: Cavia porcellus, read-out: EC50 (concentration to achieve 50% relaxation relative to relaxation by 1 mM aminophylline)
Protocol: as §1, §2
The same measuring method as method 1-1 was employed. The specimen was allowed to stand for from 60 to 90 minutes and then relaxed by an addition of 1 μM of isopreterenol. The specimen was washed, and this operation was repeated at an interval of from 30 to 40 minutes until a constant relaxation reaction was reached. Then, a test sample drug was accumulately applied to relax the specimen. Finally, 1 mM of AP was added to achieve the maximum relaxation reaction. The result was expressed by relaxation percent relative to the relaxation by AP which was rated 100%, and a concentration to achieve 50% relaxation (EC50, μM) was obtained. The final concentration of DMSO in the bath was adjusted to be 0.2 v/v%. As a control drug, AP was used.

[4] = Oryctolagus cuniculus, Platelet, rabbit PRP, ADP 5 to 10 μM, 37° C.
[5] = 30 mg/kg, orally 2 hours before EA challenge
[6] = Method 1-1, LTD4 (30 nM) contracted trachea, indomethacin 5 μM
[7] = 10 μM, bovine cerebellum, pH 7.5, 25° C., 30 minutes, read-out: Inhibition ratio against H1-receptor
[8] = Method 1-2, trachea conditioned with 1 μM isoproterenol, no LTD4, DMSO 0.2 v/v%
[9] = 30 mg/kg, orally 2 hours before EA challenge, read-out: Inhibition of broncho-constriction

T1 sequence (P30546 whole entry): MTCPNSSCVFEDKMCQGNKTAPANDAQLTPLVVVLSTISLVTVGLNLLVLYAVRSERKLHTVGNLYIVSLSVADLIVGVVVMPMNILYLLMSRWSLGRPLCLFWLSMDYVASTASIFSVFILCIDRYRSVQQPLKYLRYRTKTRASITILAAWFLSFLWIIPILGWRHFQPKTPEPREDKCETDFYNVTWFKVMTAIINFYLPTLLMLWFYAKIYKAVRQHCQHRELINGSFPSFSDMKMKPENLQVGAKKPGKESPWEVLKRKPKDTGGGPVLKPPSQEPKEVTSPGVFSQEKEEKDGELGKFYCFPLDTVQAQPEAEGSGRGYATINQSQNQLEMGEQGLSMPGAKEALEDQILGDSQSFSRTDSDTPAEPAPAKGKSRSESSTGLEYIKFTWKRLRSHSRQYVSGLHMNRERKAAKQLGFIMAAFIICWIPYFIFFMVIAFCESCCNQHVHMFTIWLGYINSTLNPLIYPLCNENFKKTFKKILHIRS

SMILES | IC50 (platelet; [4]) [nM] | EC50 (guinea-pig trachea [2]; [6]) [nM] | inhibition at 10 µM (histamine H1 receptor; [7]) [%] | EC50 (guinea-pig trachea [3]; [8]) [nM] | inhibition in vivo at 30 mg/kg [1, 9] [%] | also measured
COc1ccc(CNc2cn[nH]c(=O)c2Br)cc1OCCN1CCN(Cc2ccc(Cl)cc2)CC1.Cl [Compound 7, 4-Bromo-5-[3-{2-(4-(4-chlorobenzyl)-piperazin-1-yl)-ethoxy}-4-methoxybenzylamino]-3(2H)-pyridazinone hydrochloride] | 5400 | 490 | – | – | – | Inhibition of broncho-constriction [1, 5]: 59%; inhibition at 10 µM (histamine H1 receptor; pH 7.5, read-out: Inhibition ratio against H1-receptor, 10 μM, bovine cerebellum, pH 7.5, 25° C., 30 minutes): 56.1%
COc1ccc(CNc2cn[nH]c(=O)c2Br)cc1OCCN1CCN(Cc2ccc(Cl)cc2)CC1.O=C(O)/C=C/C(=O)O [Compound 8, 4-Bromo-5-[3-{2-(4-(4-chlorobenzyl)-piperazin-1-yl)-ethoxy}-4-methoxybenzylamino]-3(2H)-pyridazinone fumarate] | – | – | 56.5 | – | – | IC50 (platelet; rabbit PRP, ADP 5 to 10 μM, 37° C., fumarate): 5500 nM; Inhibition of broncho-constriction [1, 5]: 32%
CCn1ncc(NCc2ccc(OC)c(OCCN3CCN(Cc4ccc(F)cc4)CC3)c2)c(Cl)c1=O [Compound 17] | – | 3300 | 55.8 | – | – | –
COc1ccc(CNc2cn[nH]c(=O)c2Br)cc1OCCCN1CCN(Cc2ccccc2)CC1 [Compound 22] | 2100 | 390 | 86.6 | – | – | –
COc1ccc(CNc2cn[nH]c(=O)c2Cl)cc1OCCCN1CCN(Cc2ccccc2)CC1 [Compound 23] | 4600 | 1300 | 92.2 | – | – | –
COc1ccc(CNc2c([N+](=O)[O-])n[nH]c(=O)c2Cl)cc1OCCCN1CCN(Cc2ccccc2)CC1 [Compound 24] | – | 2000 | 89.2 | 980 | – | –
COc1ccc(CNc2c(Cl)n[nH]c(=O)c2Cl)cc1OCCCN1CCN(Cc2ccccc2)CC1 [Compound 25] | 5100 | 470 | 94.4 | – | 59 | –
COc1ccc(CNc2cn[nH]c(=O)c2Cl)cc1OCCCN1CCN(Cc2ccc(F)cc2)CC1 [Compound 26] | – | 750 | 92.6 | 910 | 36 | –
COc1ccc(CNc2c([N+](=O)[O-])n[nH]c(=O)c2Cl)cc1OCCCN1CCN(Cc2ccc(Cl)cc2)CC1 [Compound 29] | – | – | 93.6 | – | – | –
COc1ccc(CNc2c(Cl)n[nH]c(=O)c2Cl)cc1OCCCN1CCN(Cc2ccc(Cl)cc2)CC1 [Compound 30] | – | 2600 | 90.5 | – | – | –
COc1ccc(CNc2cn[nH]c(=O)c2Cl)cc1OCC(=O)N1CCN(Cc2ccccc2)CC1 [Compound 36] | – | – | – | – | – | IC50 (platelet; Oryctolagus cuniculus, Platelet): 1600 nM; inhibition in vivo at 30 mg/kg ([1]; read-out: Inhibition of broncho-constriction, 30 mg/kg, orally 2 hours before EA challenge): 41%; EC50 (guinea-pig trachea [3]): 240 nM; EC50 (guinea-pig trachea [2]): 320 nM
COc1ccc(CNc2cn[nH]c(=O)c2Cl)cc1OCC(=O)N1CCN(Cc2ccc(F)cc2)CC1 [Compound 39] | 1400 | 160 | – | 170 | 63 | –
COc1ccc(CNc2cn[nH]c(=O)c2Br)cc1OCC(=O)N1CCN(Cc2ccc(F)cc2)CC1 [Compound 43] | 2200 | 400 | – | 280 | 62 | –
COc1ccc(CNc2cn[nH]c(=O)c2Cl)cc1OCCCC(=O)N1CCN(Cc2ccccc2)CC1 [Compound 47] | 5700 | 770 | – | 540 | 37 | –
CCOc1n[nH]c(=O)c(Cl)c1NCc1ccc(OC)c(OCC(=O)N2CCN(Cc3ccc(F)cc3)CC2)c1 [Compound 64] | 390 | 320 | – | 61 | 26 | –
CCOc1n[nH]c(=O)c(Cl)c1NCc1ccc(OC)c(OCC(=O)N2CCN(Cc3ccc4ccccc4n3)CC2)c1 [Compound 67] | 400 | 170 | – | 41 | 29 | –
COc1ccc(CNc2c(OC(C)C)n[nH]c(=O)c2Cl)cc1OCC(=O)N1CCN(Cc2ccc(N)cc2)CC1 [Compound 78, 4-Chloro-5-[3-(4-(4-aminobenzyl)-piperazin-1-yl)-carbonylmethoxy-4-methoxybenzylamino]-6-isopropoxy-3(2H)-pyridazinone] | – | – | – | 14 | 54 | –
COc1ccc(CNc2c(OC(C)C)n[nH]c(=O)c2Cl)cc1OCC(=O)N1CCN(Cc2ccc(NC(C)=O)cc2)CC1 [Compound 80] | – | – | – | 39 | 30 | –

— patent US5929074A, “Pyridazinone derivatives with pharmaceutical activity” (Nissan Chemical Industries, Ltd., priority 1993, dated 1999)
